“Also recorded” adds a separate entry of the source. Where two headings read alike, the source gives them in different places.
Columns and labels:
human bone osteoblasts [1] = system: human bone osteoblasts; design: method as in Al-Ghafari et al. [55]; conditions: ref Al-Ghafari et al. [55], read-out: IC50 (MTT assay); cited from earlier work
human bone osteoblasts [2] = system: human bone osteoblasts; design: method as in Al-Ghafari et al. [55]; conditions: ref Al-Ghafari et al. [55], read-out: IC50 (LDH assay); cited from earlier work
MCF7AREc32 cell line = conditions: for cytotoxicity (cell viability <80% vs vehicle control) / IC70, cytotoxicity: MCF7AREc32, MTS test; for cytotoxicity (cell viability <80% vs vehicle control): up to 10 or 100 mg/L; for IC70, cytotoxicity: 24 h exposure, 70% response relative to vehicle control
VM7Luc4E2 cell line = conditions: VM7Luc4E2, ATPase test; for cytotoxicity (cell viability <80% vs vehicle control): up to 10 or 100 mg/L; for IC80: read-out: IC80, cytotoxicity
[3] = system: AR-EcoScreen GR-KO-M1 cell line; conditions: for cytotoxicity (cell viability <80% vs vehicle control) / IC70, cytotoxicity: AR-EcoScreen GR-KO-M1, MTS test; for cytotoxicity (cell viability <80% vs vehicle control): up to 10 or 100 mg/L; for IC50: read-out: interpolated IC50, cytotoxicity, AR-EcoScreen, converted to mmol/L
DR-EcoScreen cell line = conditions: for cytotoxicity (cell viability <80% vs vehicle control) / IC70, cytotoxicity: MTS test; for cytotoxicity (cell viability <80% vs vehicle control): up to 10 or 100 mg/L
[4] = system: rat NR8383 alveolar macrophages; design: method as in Huang et al. [69]; conditions: highest tested 200 mg/L, ref Huang et al. [69]; cited from earlier work
[5] = system: nuclear factor erythroid 2-related factor 2 (Nrf2) pathway; assay type: cell-based, human; conditions: for ECIR1.5 (effective concentration at an induction ratio of 1.5), Nrf2 activity: MCF7AREc32, 24 h exposure, linear regression; for induction of oxidative stress (Nrf2 activity exceeding a 1.5 induction ratio): MCF7AREc32, noncytotoxic concentrations

Row | Structure (SMILES) | cytotoxicity (cell viability <80% vs vehicle control) (MCF7AREc32 cell line) | cytotoxicity (cell viability <80% vs vehicle control) (VM7Luc4E2 cell line) | cytotoxicity (cell viability <80% vs vehicle control) [3] | cytotoxicity (cell viability <80% vs vehicle control) (DR-EcoScreen cell line) | ECIR1.5 (effective concentration at an induction ratio of 1.5), Nrf2 activity [5] | IC70, cytotoxicity (DR-EcoScreen cell line; 24 h exposure) | IC70, cytotoxicity ([3]; 24 h exposure) | also measured
1 | [Pb] [Pb, lead] |  |  |  |  |  |  |  | IC50 (human bone osteoblasts [1]): 55 µM; IC50 (human bone osteoblasts [2]): 79 µM
2 | [Tl] [Tl, thallium] | Cytotoxicity is shown; also recorded: Cytotoxicity for Tl was observed | Cytotoxicity is shown; also recorded: more evident |  |  |  |  |  | IC80, cytotoxicity (VM7Luc4E2 cell line; 24 h exposure): 9.0 µg/mL; IC80 (VM7Luc4E2 cell line; converted from mg/L): 44 µM
3 | [Ge] [Ge, germanium] | Neither Ge nor In exhibited any cytotoxicity | Neither Ge nor In exhibited any cytotoxicity | Neither Ge nor In exhibited any cytotoxicity | Neither Ge nor In exhibited any cytotoxicity |  |  |  | 
4 | [Nd+3].[Nd+3].[O-2].[O-2].[O-2] [Nd2O3] |  |  |  |  |  |  |  | concentration up to which no noticeable cytotoxicity was observed [4]: 6250 ng/mL
5 | [As] [As, arsenic, reference compound] | Cytotoxicity is shown; also recorded: cytotoxicity was identified |  | Cytotoxicity is shown; also recorded: cytotoxicity was identified | Cytotoxicity is shown; also recorded: cytotoxicity was identified | 0.11 mg/L | 0.83 µg/mL |  | induction of oxidative stress (Nrf2 activity exceeding a 1.5 induction ratio) [5]: found to induce oxidative stress; IC70, cytotoxicity (MCF7AREc32 cell line): 8.1 µg/mL; IC50 [3]: 0.17 mmol/L; IC50 (DR-EcoScreen cell line; read-out: interpolated IC50, cytotoxicity, converted to mmol/L): 0.014 mmol/L
6 | [Nd] [Nd, Neodymium] |  | Cytotoxicity is shown; also recorded: Cytotoxic effects were most clearly observed | Cytotoxicity is shown; also recorded: Cytotoxic effects were most clearly observed | Cytotoxicity is shown; also recorded: Cytotoxic effects were most clearly observed |  | 31 µg/mL | 26 mg/L | IC70, cytotoxicity ([3]; converted from mg/L): 0.18 mmol/L; IC70, cytotoxicity (DR-EcoScreen cell line; converted from mg/L): 210 µM; IC70, cytotoxicity (VM7Luc4E2 cell line; 24 h exposure): 24 µg/mL; IC70, cytotoxicity (VM7Luc4E2 cell line; converted from mg/L): 170 µM
7 | [Te] [Te, tellurium] |  | Cytotoxicity is shown; also recorded: Cytotoxic effects were most clearly observed | Cytotoxicity is shown; also recorded: Cytotoxic effects were most clearly observed | Cytotoxicity is shown; also recorded: Cytotoxic effects were most clearly observed |  | 8.7 µg/mL | 0.28 mg/L | IC70, cytotoxicity ([3]; converted from mg/L): 2.2 × 10^–3 mmol/L; IC70, cytotoxicity (DR-EcoScreen cell line; converted from mg/L): 68 µM; IC70, cytotoxicity (VM7Luc4E2 cell line; 24 h exposure): 1.5 µg/mL; IC70, cytotoxicity (VM7Luc4E2 cell line; converted from mg/L): 12 µM
8 | [Ga] [Ga, gallium] |  | Cytotoxicity is shown; also recorded: Cytotoxic effects were most clearly observed | Cytotoxicity is shown; also recorded: Cytotoxic effects were most clearly observed | Cytotoxicity is shown; also recorded: Cytotoxic effects were most clearly observed | 0.83 mg/L | 100 µg/mL | 50 mg/L | induction of oxidative stress (Nrf2 activity exceeding a 1.5 induction ratio) [5]: found to induce oxidative stress; IC70, cytotoxicity ([3]; converted from mg/L): 0.72 mmol/L; IC70, cytotoxicity (DR-EcoScreen cell line; converted from mg/L): 1400 µM; IC70, cytotoxicity (VM7Luc4E2 cell line; 24 h exposure): 52 µg/mL; IC70, cytotoxicity (VM7Luc4E2 cell line; converted from mg/L): 750 µM
9 | [Yb] [Yb, Ytterbium] |  | Cytotoxicity is shown; also recorded: induce cytotoxic effects |  |  |  |  |  | IC80, cytotoxicity (VM7Luc4E2 cell line; 24 h exposure): 33 µg/mL; IC80 (VM7Luc4E2 cell line; converted from mg/L): 190 µM
10 | [Gd] [Gd, Gadolinium] |  | Cytotoxicity is shown; also recorded: induce cytotoxic effects |  |  |  |  |  | IC80, cytotoxicity (VM7Luc4E2 cell line; 24 h exposure): 3.7 µg/mL; IC80 (VM7Luc4E2 cell line; converted from mg/L): 24 µM
11 | CC(C)(C)c1cc(O)ccc1O [tBHQ, tert-butylhydroquinone] |  |  |  |  | 0.27 mg/L |  |  | 
12 | [Cd] [Cd, cadmium] | Cytotoxicity is shown; also recorded: cytotoxicity was identified |  | Cytotoxicity is shown; also recorded: cytotoxicity was identified | Cytotoxicity is shown; also recorded: cytotoxicity was identified | 0.24 mg/L |  | 2.6 mg/L | induction of oxidative stress (Nrf2 activity exceeding a 1.5 induction ratio) [5]: found to induce oxidative stress; IC70, cytotoxicity (MCF7AREc32 cell line): 9.1 µg/mL; IC50 (MCF7AREc32 cell line; read-out: interpolated IC50, cytotoxicity, MCF7AREc32, converted to mmol/L): 0.087 mmol/L; IC50 [3]: 0.052 mmol/L; IC50 (human bone osteoblasts [1]): 32 µM; IC50 (human bone osteoblasts [2]): 63 µM

Reference: article PMC11755709, “Cytotoxicity and Oxidative Stress Induced by Technology-Critical Elements versus Traditional Metal Contaminants: An In Vitro Bioassay Study” (Environmental Science & Technology, 2025)
